In US12233161B1, “Lipids and lipid nanoparticle formulations” (LONGUIDE BIOPHARMA CORPORATION, priority 2024, dated 2025):

Assays:
[1] = tested on: mice; assay: In vivo delivery of FLuc-mRNA lipid nanoparticles in mice, in vivo imaging (IVIS)
Outline: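 Mice (n=3) received about 75 μL FLuc-mRNA LNP per mouse intramuscularly (rectus femoris), intravenously (tail vein), intraperitoneally or subcutaneously (back). After injection, D-luciferin (200 μL, 15 mg/mL) was given i.p. 10-15 min before IVIS imaging.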

[2] = Particle size and PDI of nucleic acid lipid nanoparticle preparations by dynamic light scattering; assay type: physicochemical
Outline: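 Size read by DLS after diluting the LNP preparation (approx. 0.04 mg/mL mRNA) in ultrapure water with gentle pipette mixing. The same sample, recovered and diluted further with water, was then used for zeta potential measurement.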

[3] = Potential characterization of nucleic acid lipid nanoparticle preparations; assay type: physicochemical
Outline: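 Zeta potential was read on a Malvern ZEN3700 after diluting 20 μL lipid nanoparticle solution (about 0.04 mg/mL mRNA) into 780 μL ultrapure water. Alternatively, a 27.5 μL sample in 200 μL water was first sized by dynamic light scattering, then diluted with 600 μL more water for potential measurement.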

[4] = DMG-PEG2000:DSPC:Chol:Lipid 1.50:11.50:17.00:70.00, N/P 30, IV, liver
[5] = DMG-PEG2000:DSPC:Chol:Lipid 1.50:11.50:17.00:70.00, N/P 30, IV, lung
[6] = DMG-PEG2000:DSPC:Chol:Lipid 1.50:11.50:17.00:70.00, N/P 30, IV, spleen
[7] = DMG-PEG2000:DSPC:Chol:Lipid 1.50:11.50:37.00:50.00, N/P 30, IV, liver
[8] = DMG-PEG2000:DSPC:Chol:Lipid 1.50:11.50:37.00:50.00, N/P 30, IV, lung
[9] = DMG-PEG2000:DSPC:Chol:Lipid 1.50:11.50:37.00:50.00, N/P 30, IV, spleen
[10] = DMG-PEG2000:DSPC:Chol:Lipid 1.50:11.50:57.00:30.00, N/P 30, IV, liver
[11] = DMG-PEG2000:DSPC:Chol:Lipid 1.50:11.50:57.00:30.00, N/P 30, IV, lung
[12] = DMG-PEG2000:DSPC:Chol:Lipid 1.50:11.50:57.00:30.00, N/P 30, IV, spleen
[13] = DMG-PEG2000:DSPC:Chol:Lipid 2.50:11.50:51.00:35.00, N/P 18, IV, liver
[14] = DMG-PEG2000:DSPC:Chol:Lipid 2.50:11.50:51.00:35.00, N/P 18, IV, lung
[15] = DMG-PEG2000:DSPC:Chol:Lipid 2.50:11.50:51.00:35.00, N/P 18, IV, spleen
[16] = DMG-PEG2000:DSPC:Chol:Lipid 1.50:11.50:17.00:70.00, N/P 30, mRNA LNP
[17] = DMG-PEG2000:DSPC:Chol:Lipid 1.50:11.50:37.00:50.00, N/P 30, mRNA LNP
[18] = DMG-PEG2000:DSPC:Chol:Lipid 1.50:11.50:57.00:30.00, N/P 30, mRNA LNP
[19] = DMG-PEG2000:DSPC:Chol:Lipid 1.71:12.98:45.31:40.00, N/P 30, mRNA LNP
[20] = DMG-PEG2000:DSPC:Chol:Lipid 2.50:11.50:51.00:35.00, N/P 18, mRNA LNP
[21] = DMG-PEG2000:DSPC:Chol:compound 1.50:30.00:33.50:35.00, N/P 9
[22] = DMG-PEG2000:DSPC:Chol:compound 1.50:30.00:48.50:20.00, N/P 9
[23] = DMG-PEG2000:DSPC:Chol:compound 1.50:30.00:58.50:10.00, N/P 9
[24] = DMG-PEG2000:DSPC:Chol:compound 1.50:30.00:63.50:5.00, N/P 9

For `CCCCCCCCCCCCOC(=O)C(O)CN(CCCN(C)CCCN(CC(O)C(=O)OCCCCCCCCCCCC)CC(O)C(=O)OCCCCCCCCCCCC)CC(O)C(=O)OCCCCCCCCCCCC` (centres unmarked) [Compound L0261], the IVIS ([1]; DMG-PEG2000:DSPC:Chol:Lipid 1.50:11.50:17.00:70.00, N/P 30, IV, body) was 4.64 × 10^7, the “% of organ targeting” value [1, 4] was 1.68% and the IVIS [1, 4] was 1.65 × 10^6. The “% of organ targeting” value [1, 5] was 91.29%, the IVIS [1, 5] was 8.93 × 10^7 and the “% of organ targeting” value [1, 6] was 7.03%. For the same compound, the IVIS [1, 6] was 6.88 × 10^6, the IVIS ([1]; DMG-PEG2000:DSPC:Chol:Lipid 1.50:11.50:37.00:50.00, N/P 30, IV, body) was 1.09 × 10^8 and the “% of organ targeting” value [1, 7] was 30.20%. For the same compound, the IVIS [1, 7] was 1.83 × 10^7, the “% of organ targeting” value [1, 8] was 30.87% and the IVIS [1, 8] was 1.87 × 10^7. The “% of organ targeting” value [1, 9] was 38.93%, the IVIS [1, 9] was 2.36 × 10^7 and the IVIS ([1]; DMG-PEG2000:DSPC:Chol:Lipid 1.50:11.50:57.00:30.00, N/P 30, IV, body) was 5.88 × 10^7. The “% of organ targeting” value [1, 10] was 17.84%, the IVIS [1, 10] was 1.20 × 10^7 and the “% of organ targeting” value [1, 11] was 7.50%. The IVIS [1, 11] was 5.06 × 10^6, the “% of organ targeting” value [1, 12] was 74.66% and the IVIS [1, 12] was 5.03 × 10^7. The IVIS ([1]; DMG-PEG2000:DSPC:Chol:Lipid 1.71:12.98:45.31:40.00, N/P 30, IM, whole body scan) was 5.24 × 10^6, the IVIS ([1]; DMG-PEG2000:DSPC:Chol:Lipid 2.50:11.50:51.00:35.00, N/P 18, IV, body) was 4.72 × 10^7 and the “% of organ targeting” value [1, 13] was 6.56%. The IVIS [1, 13] was 3.81 × 10^6, the “% of organ targeting” value [1, 14] was 1.88% and the IVIS [1, 14] was 1.09 × 10^6. The “% of organ targeting” value [1, 15] was 91.57%, the IVIS [1, 15] was 5.33 × 10^7 and the IVIS ([1]; IV, body, DMG-PEG2000:DSPC:Chol:compound 1.50:30.00:33.50:35.00, N/P 9, Fluc-mRNA) was 2.66E+07. The IVIS ([1]; IV, body, DMG-PEG2000:DSPC:Chol:compound 1.50:30.00:48.50:20.00, N/P 9, Fluc-mRNA) was 1.18E+07, the IVIS ([1]; IV, body, DMG-PEG2000:DSPC:Chol:compound 1.50:30.00:58.50:10.00, N/P 9, Fluc-mRNA) was 2.03E+06 and the IVIS ([1]; IV, body, DMG-PEG2000:DSPC:Chol:compound 1.50:30.00:63.50:5.00, N/P 9, Fluc-mRNA) was 1.06E+06. The “% of organ targeting” value ([1]; IV, liver, DMG-PEG2000:DSPC:Chol:compound 1.50:30.00:33.50:35.00, N/P 9) was 3.86%, the IVIS ([1]; IV, liver, DMG-PEG2000:DSPC:Chol:compound 1.50:30.00:33.50:35.00, N/P 9, Fluc-mRNA) was 1.00E+06 and the “% of organ targeting” value ([1]; IV, liver, DMG-PEG2000:DSPC:Chol:compound 1.50:30.00:48.50:20.00, N/P 9) was 8.55%. The IVIS ([1]; IV, liver, DMG-PEG2000:DSPC:Chol:compound 1.50:30.00:48.50:20.00, N/P 9, Fluc-mRNA) was 1.65E+06, the “% of organ targeting” value ([1]; IV, liver, DMG-PEG2000:DSPC:Chol:compound 1.50:30.00:58.50:10.00, N/P 9) was 36.36% and the IVIS ([1]; IV, liver, DMG-PEG2000:DSPC:Chol:compound 1.50:30.00:58.50:10.00, N/P 9, Fluc-mRNA) was 7.14E+05. The “% of organ targeting” value ([1]; IV, liver, DMG-PEG2000:DSPC:Chol:compound 1.50:30.00:63.50:5.00, N/P 9) was 26.05%, the IVIS ([1]; IV, liver, DMG-PEG2000:DSPC:Chol:compound 1.50:30.00:63.50:5.00, N/P 9, Fluc-mRNA) was 1.91E+05 and the “% of organ targeting” value ([1]; IV, lung, DMG-PEG2000:DSPC:Chol:compound 1.50:30.00:33.50:35.00, N/P 9) was 2.02%. For the same compound, the IVIS ([1]; IV, lung, DMG-PEG2000:DSPC:Chol:compound 1.50:30.00:33.50:35.00, N/P 9, Fluc-mRNA) was 5.23E+05, the “% of organ targeting” value ([1]; IV, lung, DMG-PEG2000:DSPC:Chol:compound 1.50:30.00:48.50:20.00, N/P 9) was 4.05% and the IVIS ([1]; IV, lung, DMG-PEG2000:DSPC:Chol:compound 1.50:30.00:48.50:20.00, N/P 9, Fluc-mRNA) was 7.80E+05. The “% of organ targeting” value ([1]; IV, lung, DMG-PEG2000:DSPC:Chol:compound 1.50:30.00:58.50:10.00, N/P 9) was 4.39%, the IVIS ([1]; IV, lung, DMG-PEG2000:DSPC:Chol:compound 1.50:30.00:58.50:10.00, N/P 9, Fluc-mRNA) was 8.62E+04 and the “% of organ targeting” value ([1]; IV, lung, DMG-PEG2000:DSPC:Chol:compound 1.50:30.00:63.50:5.00, N/P 9) was 7.91%. For the same compound, the IVIS ([1]; IV, lung, DMG-PEG2000:DSPC:Chol:compound 1.50:30.00:63.50:5.00, N/P 9, Fluc-mRNA) was 5.78E+04, the “% of organ targeting” value ([1]; IV, spleen, DMG-PEG2000:DSPC:Chol:compound 1.50:30.00:33.50:35.00, N/P 9) was 94.12% and the IVIS ([1]; IV, spleen, DMG-PEG2000:DSPC:Chol:compound 1.50:30.00:33.50:35.00, N/P 9, Fluc-mRNA) was 2.44E+07. For the same compound, the “% of organ targeting” value ([1]; IV, spleen, DMG-PEG2000:DSPC:Chol:compound 1.50:30.00:48.50:20.00, N/P 9) was 87.40%, the IVIS ([1]; IV, spleen, DMG-PEG2000:DSPC:Chol:compound 1.50:30.00:48.50:20.00, N/P 9, Fluc-mRNA) was 1.68E+07 and the “% of organ targeting” value ([1]; IV, spleen, DMG-PEG2000:DSPC:Chol:compound 1.50:30.00:58.50:10.00, N/P 9) was 59.25%. The IVIS ([1]; IV, spleen, DMG-PEG2000:DSPC:Chol:compound 1.50:30.00:58.50:10.00, N/P 9, Fluc-mRNA) was 1.16E+06, the “% of organ targeting” value ([1]; IV, spleen, DMG-PEG2000:DSPC:Chol:compound 1.50:30.00:63.50:5.00, N/P 9) was 66.04% and the IVIS ([1]; IV, spleen, DMG-PEG2000:DSPC:Chol:compound 1.50:30.00:63.50:5.00, N/P 9, Fluc-mRNA) was 4.83E+05. For the same compound, the “tissue-targeting specificity (lung vs spleen depending on molar percentage of compound)” value ([1]; certain formulations, Table 2) was “strong tissue-targeting specificity”, the PDI [2, 16] was 0.17 ± 0.01 and the Particle size [2, 16] was 118.13 ± 0.40 nm. For the same compound, the PDI [2, 17] was 0.20 ± 0.01, the Particle size [2, 17] was 130.87 ± 0.87 nm and the PDI [2, 18] was 0.13 ± 0.02. The Particle size [2, 18] was 88.09 ± 0.52 nm, the PDI [2, 19] was 0.24 ± 0.02 and the Particle size [2, 19] was 94.33 ± 1.52 nm. It also gave a PDI [2, 20] of 0.17 ± 0.01, a Particle size [2, 20] of 99.13 ± 0.78 nm and a PDI [2, 21] of 0.20. The “Particle size (nm)” value [2, 21] was 141.40 nm, the PDI [2, 22] was 0.21 and the “Particle size (nm)” value [2, 22] was 107.23 nm. The PDI [2, 23] was 0.21, the “Particle size (nm)” value [2, 23] was 136.30 nm and the PDI [2, 24] was 0.16. For the same compound, the “Particle size (nm)” value [2, 24] was 128.87 nm, the “Zeta potential (mV)” value [3, 21] was 16.03 mV and the “Zeta potential (mV)” value [3, 22] was 14.53 mV. The “Zeta potential (mV)” value [3, 23] was 15.47 mV and the “Zeta potential (mV)” value [3, 24] was 16.57 mV.
